Marks after values point to notes of the source that are not given here. Each block holds one molecule with its values, some of them ahead of it.
Columns and labels:
[1] = cited from earlier work
[2] = Salt screening (XRPD, chiral purity of hits); type: physicochemical
Description: Based on the pKa of I-1 free form, 23 counter ions were selected as salt/cocrystal forming agents. Methanol, acetone and isopropyl acetate were used as screening solvents. 1.0 equivalent of selected counter ions/coformers was applied for salt screening. Slurry equilibration, slow evaporation and anti-solvent addition were used as crystallization methods. In total, about 70 screening experiments were conducted.
About 50 mg of I-1 Form A were added to a suitable amount of solvent and 1.0 equivalent of counter ions were added under stirring at 50° C. for 2 hours and then at 25° C. for at least 12 hours. MeOH, acetone and IPAc were used as screening solvents.
Obtained suspensions were taken out and centrifuged. Solids obtained were analyzed by XRPD and salt screening results were summarized in Table 5.1, Table 5.2, and Table 5.3.

[3] = Polymorph screening (equilibration, anti-solvent, slow evaporation, slow cooling, temperature cycling, heating-cooling; XRPD and SFC); type: physicochemical; settings: for ee %(SFC): 6 days
Description: This polymorph screening program of compound I-1 free form was performed with two batches of the pure enantiomer. Both batches are crystalline and is assigned as Form A. The polymorphic behaviors of the enantiomer were investigated by equilibration at 25° C. and 50° C., equilibration under a temperature cycle, crystallization from hot saturated solutions by slow cooling, slow evaporation, precipitation by addition of anti-solvent, and DSC heating-cooling cycle experiments. Relative stability of identified polymorphs was investigated by competitive slurry experiments.
(§1) About 50 mg of I-1 Form A was weighed into a 2 mL glass vial and equilibrated in suitable amount of solvents (pretreated by molecular sieves) at 25° C. for 2 weeks with a stirring plate and with protection from light. Obtained suspensions were filtered with 0.45 μm nylon membrane and the solid parts (wet cake) were investigated by XRPD. When differences were observed, additional investigations were performed (e.g. DSC, TGA, ^1H-NMR, SFC).
as §1, with “into” for “into a”, “vials” for “vial”, “50°” for “25°”, “10 days” for “2 weeks”, “investigation was” for “investigations were”
I-1 Form A was dissolved in a good solvent. […] The solvents used were pretreated by molecular sieve. Precipitates were collected by filtration. The solid part (wet cake) was investigated by XRPD. […] When differences were observed, additional investigations were performed (e.g. DSC, TGA, ^1H-NMR, SFC).
Based on approximate solubility results, I-1 Form A was dissolved in suitable amount of solvents (pretreated by molecular sieves). Obtained solutions were filtered by 0.45 μm nylon filter. […] Solid residues were examined for their polymorphic form. When differences were observed, additional investigations were performed (e.g. DSC, TGA, ^1H-NMR, SFC).
Approximate 50 mg of batch I-1 Form A were dissolved in the minimal amount of selected solvents (without pretreatment by molecular sieves) at 50° C. Obtained solutions were filtered by 0.45 μm nylon filter. […] Precipitates were collected by filtration. The solid parts (wet cake) were investigated by XRPD. When differences were observed, additional investigations were performed (e.g. DSC, TGA, ^1H-NMR, SFC). When no precipitation was obtained or only a few solids were obtained, the solutions were placed at 5° C. for crystallization.
About 50 mg of I-1 Form A was equilibrated in different solvents (pretreated by molecular sieves) under a temperature cycle between 5° C. to 50° C. at a heating/cooling rate of 0.2° C./min for 10 cycles and with protection from light. After 10 cycles, precipitates were collected at 5° C. by filtration. The solid parts (wet cake) were investigated by XRPD. When differences were observed, additional investigations were performed (e.g. DSC, TGA, 1H-NMR, SFC).
Polymorphic behavior of I-1 Form A was investigated by two different heating-cooling cycles of DSC. Cycle 1:30° C. to 280° C. at 10° C./min; 280° C. to −20° C. at 20° C./min; reheat to 300° C. at 10° C./min. Cycle 2:30° C. to 280° C. at 10° C./min; 280° C. to-20° C. at 2° C./min; reheat to 300° C. at 10° C./min.

[4] = Light and glassware influence on racemization of II-1; type: physicochemical
Description: The effect of glassware surface pH and light on II-1 racemization was evaluated.

[5] = crystalline hits of salt screening, listed as I-2 Form A
[6] = crystalline hit dried at 50° C. for 21 h
[7] = crystalline hits of salt screening, listed as I-5 Form A
[8] = crystalline hits of salt screening, listed as I-5 Form B
[9] = equilibration of II-1 in 1,4-dioxane, 50° C.
[10] = crystalline hits of salt screening, listed as III-2 Form A
[11] = crystalline hits of salt screening, listed as III-2 Form B
[12] = crystalline hits of salt screening, listed as III-6 Form A

Structure (SMILES): O=C(O)CC(O)(CC(=O)O)C(=O)O [Citric acid]
pKa(s) [1]: 3.12, 4.76, 6.39

Structure (SMILES): N#Cc1c(-c2cc(NC(=O)c3cc(F)cc(C(F)(F)F)c3)c3c(c2)C(=O)N[C@H]3c2cc(F)ccc2Cl)ccc2ncnn12 [Compound I-2]
Salt screening result (slurry crystallization) ([2]; 1.0 equiv. HCl, Isopropyl acetate): + (Salt hits)
Chiral purity (by HPLC) [2, 5]: 89.7%
Crystallinity (By XRPD) [2, 5]: Low
Chiral purity of salt screening solid ([2]; slurry, 1.0 equiv. HCl, Isopropyl acetate): Chiral purity: 89.7%

Structure (SMILES): N#Cc1c(-c2cc(NC(=O)c3cc(F)cc(C(F)(F)F)c3)c3c(c2)C(=O)N[C@H]3c2cc(F)ccc2Cl)ccc2ncnn12 [Compound I-5]
Salt screening result (anti-solvent) ([2]; 1.0 equiv. naphthalene-1,5-disulfonic acid, Acetone/MTBE): + (I-5 Form B) (Salt hits)
Chiral purity of salt screening solid ([2]; anti-solvent, 1.0 equiv. naphthalene-1,5-disulfonic acid, Acetone/MTBE): Chiral purity: 88.3%
Chiral purity (by HPLC) [2, 6]: C. for 21 h: 100%
Crystallinity (By XRPD) [2, 6]: low crystallinity
Chiral purity (by HPLC) [2, 7]: 100% dried at 50°
Crystallinity (By XRPD) [2, 7]: Medium crystallinity
Chiral purity (by HPLC) [2, 8]: 88.3%
Crystallinity (By XRPD) [2, 8]: Medium

XRPD (6 days) [3, 9]: II-1 Form B
ee %(SFC) [3, 9]: ee %(SFC): −99.48%*
ee %(SFC) ([3]; equilibration of II-1 in ACN/water(80:20, v/v), 50° C.): ee %(SFC): −99.24%*
ee %(SFC) ([3]; equilibration of II-1 in EtOH/water(50:50, v/v), 50° C.): ee %(SFC): −99.78%*
ee %(SFC) ([3]; equilibration of II-1 in Methanol, 50° C.): ee %(SFC): −99.66%*
XRPD (6 days) ([3]; equilibration of II-1 in THF/water(85:15, v/v) a.w. 0.9, 25° C.): II-1 Form C (include the
ee %(SFC) ([3]; equilibration of II-1 in THF/water(85:15, v/v), 25° C.): ee %(SFC): −99.34%*
racemization in solution ([4]; basic glassware, promoted by light): Noticeable racemization
racemization in solution ([4]; neutral and acidic glassware, absence and presence of light, up to 13 days): no significant racemization
Structure (SMILES): N#Cc1c(-c2cc(NC(=O)c3cc(F)cc(C(F)(F)F)c3)c3c(c2)C(=O)N[C@@H]3c2cc(F)ccc2Cl)ccc2ncnn12 [II-1, (S)-N-(3-(2-chloro-5-fluorophenyl)-6-(5-cyano-[1,2,4]triazolo[1,5-a]pyridin-6-yl)-1-oxoisoindolin-4-yl)-3-fluoro-5-(trifluoromethyl)benzamide]

Structure (SMILES): N#Cc1c(-c2cc(NC(=O)c3cc(F)cc(C(F)(F)F)c3)c3c(c2)C(=O)NC3c2cc(F)ccc2Cl)ccc2ncnn12 (stereo not shown) [III-2]
Salt screening result (slurry crystallization) ([2]; 1.0 equiv. HCl, ACN (second block of table)): + (III-2 Form B) (Salt hits)
Salt screening result (slurry crystallization) ([2]; 1.0 equiv. HCl, Acetone): + (III-2 Form A) (Salt hits)
Salt screening result (slurry crystallization) ([2]; 1.0 equiv. HCl, Acetone (second block of table)): + (III-2 Form A) (Salt hits)
Chiral purity (by HPLC) [2, 10]: 30.8%
Crystallinity (By XRPD) [2, 10]: Medium
Chiral purity (by HPLC) [2, 11]: 20.3%
Crystallinity (By XRPD) [2, 11]: Low
Chiral purity of salt screening solid ([2]; slurry, 1.0 equiv. HCl, ACN (second block of table)): Chiral purity: 20.2%
Chiral purity of salt screening solid ([2]; slurry, 1.0 equiv. HCl, Acetone): Chiral purity: 30.8%
Chiral purity of salt screening solid ([2]; slurry, 1.0 equiv. HCl, Acetone (second block of table)): Chiral purity: 45.4%

Structure (SMILES): N#Cc1c(-c2cc(NC(=O)c3cc(F)cc(C(F)(F)F)c3)c3c(c2)C(=O)NC3c2cc(F)ccc2Cl)ccc2ncnn12 (stereo not shown) [III-6]
Salt screening result (slurry crystallization) ([2]; 1.0 equiv. naphthalene-2-sulfonic acid, Acetone): + (Salt hits)
Chiral purity (by HPLC) [2, 12]: 43.2%
Crystallinity (By XRPD) [2, 12]: low
Chiral purity of salt screening solid ([2]; slurry, 1.0 equiv. naphthalene-2-sulfonic acid, Acetone): Chiral purity: 43.2%

Structure (SMILES): O=S(=O)(O)c1ccc2ccccc2c1 [Naphthalene-2-sulfonic acid]
pKa(s) [1]: 0.17
